The values that follow come from patent publication US12110294B2, “CD73 compounds” (Gilead Sciences, Inc., priority 2020, dated 2024).

SMILES strings stand for the structures. pEC50: −log10 of the molar value.

In the assay the target is T1, CD73 activity in MDA-MB-231-GFP cells (Homo sapiens, UniProt P21589).
T1 construct: endogenous in cells; host or cells: MDA-MB-231-GFP cells
T1 sequence (P21589 27-549): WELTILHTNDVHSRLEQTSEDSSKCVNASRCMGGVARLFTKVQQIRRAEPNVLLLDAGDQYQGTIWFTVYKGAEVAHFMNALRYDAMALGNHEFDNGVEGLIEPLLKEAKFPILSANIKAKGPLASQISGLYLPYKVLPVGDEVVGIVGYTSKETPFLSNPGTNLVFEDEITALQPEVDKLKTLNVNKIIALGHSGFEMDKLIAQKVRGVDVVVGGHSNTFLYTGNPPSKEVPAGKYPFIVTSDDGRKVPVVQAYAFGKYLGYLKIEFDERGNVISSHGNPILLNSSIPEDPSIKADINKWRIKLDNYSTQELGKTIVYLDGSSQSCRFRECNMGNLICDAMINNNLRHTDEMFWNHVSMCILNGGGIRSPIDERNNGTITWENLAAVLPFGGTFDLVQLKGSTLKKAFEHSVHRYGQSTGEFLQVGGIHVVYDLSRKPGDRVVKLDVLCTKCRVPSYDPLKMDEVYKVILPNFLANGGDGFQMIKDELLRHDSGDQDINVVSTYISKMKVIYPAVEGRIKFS
Description: MDA-MB-231 Cell Based CD73 Activity Assay (DMEM). As to conditions: 3000 cells per well, DMEM medium with 10% human plasma, overnight compound treatment, AMP 200 uM. The procedure: MDA-MB-231 Cell Based CD73 Activity Assay (DMEM) MDA-MB-231-GFP cells were seeded in 384-well plates (Greiner 781946) at a density of 3000 cells per well in 50 μL of DMEM medium with 10% HP (human plasma). Cells were plated into assay plate with compounds pre-spotted, for an overnight compound treatment. 50 uL of 400 uM AMP (final concentration will be 200 uM) was added using Bio-tek dispenser. Plates were incubated for 100 mins. […] The samples were analyzed using Rapid fire.
Consider `CC1CN(C(=O)c2cccc([C@H]3C[C@@H]3c3cc(-c4c[nH]c(=O)[nH]c4=O)nn4ccnc34)c2)C1` (racemic) [Example 295, 5-(8-((1S,2S)-2-(3-(3-methylazetidine-1-carbonyl)phenyl)cyclopropyl)imidazo[1,2-b]pyridazin-6-yl)pyrimidine-2,4(1H,3H)-dione], for which the pEC50 (in general, the negative decadic logarithm of the EC50, by convention in mol/L) is 8.71.
Regarding `O=C(c1cccc([C@H]2C[C@@H]2c2cc(-c3c[nH]c(=O)[nH]c3=O)nn3ccnc23)c1)N1CC(C(F)(F)F)C1` (racemic) [Example 296, 5-(8-((2S,2S)-2-(3-(3-(trifluoromethyl)azetidine-1-carbonyl)phenyl)cyclopropyl)imidazo[1,2-b]pyridazin-6-yl)pyrimidine-2,4(1H,3H)-dione], the pEC50 is 8.36.
As to `O=C(c1cccc([C@H]2C[C@@H]2c2cc(-c3c[nH]c(=O)[nH]c3=O)nn3ccnc23)c1)N1CC(F)(F)C1` (racemic) [Example 297, 5-(8-((2S,2S)-2-(3-(3,3-difluoroazetidine-1-carbonyl)phenyl)cyclopropyl)imidazo[1,2-b]pyridazin-6-yl)pyrimidine-2,4(1H,3H)-dione], the pEC50 is 8.88.
The compound `CC1(C)CN(C(=O)c2cccc([C@H]3C[C@@H]3c3cc(-c4c[nH]c(=O)[nH]c4=O)nn4ccnc34)c2)C1` (racemic) [Example 298, 5-(8-((2S,2S)-2-(3-(3,3-dimethylazetidine-1-carbonyl)phenyl)cyclopropyl)imidazo[1,2-b]pyridazin-6-yl)pyrimidine-2,4(1H,3H)-dione] gave a pEC50 of 8.55.
In the case of `O=C(c1ccc([C@H]2C[C@@H]2c2cc(-c3c[nH]c(=O)[nH]c3=O)nn3ccnc23)cc1)N1C[C@@H](F)[C@H](F)C1` (racemic) [Example 299], the pEC50 was 7.61.
Next, `O=C(c1cccc([C@H]2C[C@@H]2c2cc(-c3c[nH]c(=O)[nH]c3=O)nn3ccnc23)c1)N1C[C@@H](F)[C@H](F)C1` (racemic) [Example 300, 5-(8-((2S,2S)-2-(3-((3R,4R)-3,4-difluoropyrrolidine-1-carbonyl)phenyl)cyclopropyl)imidazo[1,2-b]pyridazin-6-yl)pyrimidine-2,4(1H,3H)-dione]: 8.87; `O=C(c1ccc([C@H]2C[C@@H]2c2cc(-c3c[nH]c(=O)[nH]c3=O)nn3ccnc23)cc1)N1C[C@@H](F)[C@@H](F)C1` (racemic) [Example 301, 5-(8-((2S,2S)-2-(4-((3S,4R)-3,4-difluoropyrrolidine-1-carbonyl)phenyl)cyclopropyl)imidazo[1,2-b]pyridazin-6-yl)pyrimidine-2,4(1H,3H)-dione]: 7.72.
Next, `O=C(c1cccc([C@H]2C[C@@H]2c2cc(-c3c[nH]c(=O)[nH]c3=O)nn3ccnc23)c1)N1C[C@@H](F)[C@@H](F)C1` (racemic) [Example 302, 5-(8-((2S,2S)-2-(3-((3S,4R)-3,4-difluoropyrrolidine-1-carbonyl)phenyl)cyclopropyl)imidazo[1,2-b]pyridazin-6-yl)pyrimidine-2,4(1H,3H)-dione]: 8.16; `O=C(c1ccc([C@H]2C[C@@H]2c2cc(-c3c[nH]c(=O)[nH]c3=O)nn3ccnc23)cc1)N1CC(F)(F)C(F)(F)C1` (racemic) [Example 303, 5-(8-((1S,2S)-2-(4-(3,3,4,4-tetrafluoropyrrolidine-1-carbonyl)phenyl)cyclopropyl)imidazo[1,2-b]pyridazin-6-yl)pyrimidine-2,4(1H,3H)-dione]: 7.56; `O=C(c1cccc([C@H]2C[C@@H]2c2cc(-c3c[nH]c(=O)[nH]c3=O)nn3ccnc23)c1)N1CC(F)(F)C(F)(F)C1` (racemic) [Example 304, 5-(8-((2S,2S)-2-(3-(3,3,4,4-tetrafluoropyrrolidine-1-carbonyl)phenyl)cyclopropyl)imidazo[1,2-b]pyridazin-6-yl)pyrimidine-2,4(1H,3H)-dione]: 8.52.
Next, `O=C(c1ccc([C@H]2C[C@@H]2c2cc(-c3c[nH]c(=O)[nH]c3=O)nn3ccnc23)cc1)N1CCC(F)(F)C1` (racemic) [Example 305, 5-(8-((2S,2S)-2-(4-(3,3-difluoropyrrolidine-1-carbonyl)phenyl)cyclopropyl)imidazo[1,2-b]pyridazin-6-yl)pyrimidine-2,4(1H,3H)-dione]: 7.67; `O=C(c1cccc([C@H]2C[C@@H]2c2cc(-c3c[nH]c(=O)[nH]c3=O)nn3ccnc23)c1)N1CCC(F)(F)C1` (racemic) [Example 306, 5-(8-((2S,2S)-2-(3-(3,3-difluoropyrrolidine-1-carbonyl)phenyl)cyclopropyl)imidazo[1,2-b]pyridazin-6-yl)pyrimidine-2,4(1H,3H)-dione]: 8.85.
`CC1(C)CCN(C(=O)c2ccc([C@H]3C[C@@H]3c3cc(-c4c[nH]c(=O)[nH]c4=O)nn4ccnc34)cc2)C1` (racemic) [Example 307, 5-(8-((2S,2S)-2-(4-(3,3-dimethylpyrrolidine-1-carbonyl)phenyl)cyclopropyl)imidazo[1,2-b]pyridazin-6-yl)pyrimidine-2,4(1H,3H)-dione]: the negative logarithm of the EC50 (pEC50) was 7.02.
Next, `CC1(C)CCN(C(=O)c2cccc([C@H]3C[C@@H]3c3cc(-c4c[nH]c(=O)[nH]c4=O)nn4ccnc34)c2)C1` (racemic) [Example 308, 5-(8-((1S,2S)-2-(3-(3,3-dimethylpyrrolidine-1-carbonyl)phenyl)cyclopropyl)imidazo[1,2-b]pyridazin-6-yl)pyrimidine-2,4(1H,3H)-dione]: 8.19; `O=c1[nH]cc(-c2cc([C@H]3C[C@@H]3c3ccccc3OC(F)(F)F)c3nccn3n2)c(=O)[nH]1` (racemic) [Example 309, 5-(8-((1S,2S)-2-(2-(trifluoromethoxy)phenyl)cyclopropyl)imidazo[1,2-b]pyridazin-6-yl)pyrimidine-2,4(1H,3H)-dione]: 6.68; `N#Cc1cncc([C@H]2C[C@@H]2c2cc(-c3c[nH]c(=O)[nH]c3=O)nn3ccnc23)c1` (racemic) [Example 311, 5-((2S,2S)-2-(6-(2,4-dioxo-1,2,3,4-tetrahydropyrimidin-5-yl)imidazo[1,2-b]pyridazin-8-yl)cyclopropyl)nicotinonitrile]: 7.94.
Next, `CNC(=O)c1ccc([C@H]2C[C@@H]2c2cc(-c3c[nH]c(=O)[nH]c3=O)nn3c(F)cnc23)cc1` (racemic) [Example 312, 4-((2S,2S)-2-(6-(2,4-dioxo-1,2,3,4-tetrahydropyrimidin-5-yl)-3-fluoroimidazo[1,2-b]pyridazin-8-yl)cyclopropyl)-N-methylbenzamide]: 8.38; `Cc1nc2cc([C@H]3C[C@@H]3c3cc(-c4c[nH]c(=O)[nH]c4=O)nn4ccnc34)ccc2s1` (racemic) [Example 321, 5-(8-((2S,2S)-2-(2-methylbenzo[d]thiazol-5-yl)cyclopropyl)imidazo[1,2-b]pyridazin-6-yl)pyrimidine-2,4(1H,3H)-dione]: 7.95.
Next, `Cn1ncc2ccc([C@H]3C[C@@H]3c3cc(-c4c[nH]c(=O)[nH]c4=O)nn4ccnc34)cc21` (racemic) [Example 326, 5-(8-((1S,2S)-2-(1-methyl-1H-indazol-6-yl)cyclopropyl)imidazo[1,2-b]pyridazin-6-yl)pyrimidine-2,4(1H,3H)-dione]: 8.58.
